In general, Ki refers to a measure of affinity in units of concentration, obtained from inhibition or displacement.

The results in this text go back to paper PMC7767506, “Synthesis and Characterization of Store-Operated Calcium Entry Inhibitors Active in the Submicromolar Range” (International Journal of Molecular Sciences, 2020).

Data set [1] deals with SOCE in MDA-MB231 (breast cancer) cells. Description: Thapsigargin-induced SOCE in MDA-MB231 cells, Indo-1. Format: cell-based, human. How it is done:
We also tested P11 on the DG75 (Burkitt B lymphoma), U937 (monocytic lymphoma), and MDA-MB231 (breast carcinoma) cell lines. […] Thus, in several cell lines, full inhibition of the SOCE was already obtained at a concentration of 100 nM (Figure 3B).
[Ca^2+]cyt was recorded by a fluorimetric ratio technique as previously described. Leukocytes were spun and resuspended at a density of 10^6 cells/mL in Hepes buffered saline (HBS; 135 mM NaCl, 5.9 mM KCl, 1.2 mM MgCl2, 11.6 mM Hepes, 11.5 mM glucose adjusted to pH 7.3 with NaOH). Due to the presence of 0.002% Ca^2+ in the NaCl, this HBS medium contained 0.1 mM of Ca^2+. Then, cells were incubated in the dark with 4 μM Indo-1-AM for one hour at room temperature under slow agitation. […] Ultraviolet light of 360 nm was used for excitation of Indo-1, and emissions at 405 and 480 nm were recorded. […] The maximum Indo-1 fluorescence (Rmax) was obtained by adding 1 µM ionomycin to the cell suspension in the presence of 10 mM extracellular CaCl2. Minimum fluorescence was determined following the depletion of external Ca^2+ with 5 mM EGTA.
To visualize the SOCE, cells were placed into the quartz cuvette and 0.5 EGTA was added just before the beginning of the recordings. […] In the dose-response experiments, different concentrations of 2-APB and its analogs were added 30 s prior to Ca^2+ readdition.

For data set [2], the system named is IL-2 synthesis by Jurkat T cells. The data set is described as follows: IL-2 ELISA in supernatants of Jurkat cells. Format: cell-based, human. As for the experimental part: We next studied the effect of increasing [P11] on the neo-synthesized IL-2 concentration in the medium of PHA -stimulated Jurkat cells after 24 h.
(§1) Forty-eight-well plates were seeded with 10^6 Jurkat T cells per well. Cells were then incubated for 24 h with or without 10 µg/mL PHA and 0 to 1 µM P11 in complete culture medium. After 24 h, supernatants were collected, and IL-2 amounts were quantified using a Quantikine Human IL-2 Immunoassay (R&D Systems Europe, Lille, France). Optical density (OD) was measured at 450 nm using a Victor3 plate reader (Perkin Elmer, Courtaboeuf, France). The concentration of supernatant IL-2 was determined from the OD curve obtained with the standard. Results were the mean of four repeats. In parallel plates, cell viability was accessed after treatment with trypan blue and counting with a Malassez hematimeter (Sigma-Aldrich, Saint Quentin Fallavier, France).

Data set [3] deals with Jurkat cells. The data set is described as follows: Cell death by trypan blue staining of Jurkat cells. It counts as cell-based, human. How it is done:
As this diminution in IL-2 synthesis can both be explained by the decrease of its synthesis by all cells, or by a decrease in the number of cells that can synthesize IL-2, we next evaluated cell death by trypan blue staining in the presence of PHA stimulation with and without the addition of compound P11.
as §1

The test system of data set [4] is Jurkat cell SOCE. The data set is described as follows: Thapsigargin-induced SOCE in Jurkat cells, Indo-1 [Ca2+]cyt measurement. It counts as cell-based, human. The following applies: Jurkat cells; for Ki: 1 µM thapsigargin 10 min, compound added 30 s prior to 1 mM CaCl2. As for the experimental part: To visualize SOCE, we performed a classical protocol: Jurkat cells in Ca^2+-free HBS medium are stimulated by 1 µM thapsigargin (TG, black arrow, Figure 2A) during 600 s to allow the release of Ca^2+ ions by the ER, and the subsequent opening of the store-operated Ca^2+ channels (SOCC). Addition of 1 mM CaCl2 allowed for a massive entry of Ca^2+ ions through SOCC leading thus to an increase of the cytosolic calcium concentration ([Ca^2+]cyt). To test 2-APB and its analogues, different concentrations of compounds were added 30 s prior to Ca^2+ addition.
[Ca^2+]cyt was recorded by a fluorimetric ratio technique as previously described. Leukocytes were spun and resuspended at a density of 10^6 cells/mL in Hepes buffered saline (HBS; 135 mM NaCl, 5.9 mM KCl, 1.2 mM MgCl2, 11.6 mM Hepes, 11.5 mM glucose adjusted to pH 7.3 with NaOH). Due to the presence of 0.002% Ca^2+ in the NaCl, this HBS medium contained 0.1 mM of Ca^2+. Then, cells were incubated in the dark with 4 μM Indo-1-AM for one hour at room temperature under slow agitation. Cells were then centrifuged and resuspended in HBS medium before measurement. To perform the experiments, 0.5 to 1 × 10^6 cells were suspended in 2 mL HBS in a quartz cuvette and inserted into a spectrofluorophotometer (RF-1501 Shimadzu Corporation, Kyoto, Japan) connected to a PC computer (Dell Computer Corp., Montpellier, France). A temperature of 37°C was maintained by circulating water from a bath. Ultraviolet light of 360 nm was used for excitation of Indo-1, and emissions at 405 and 480 nm were recorded. Background and autofluorescence of the cell suspension were subtracted from the recordings. The maximum Indo-1 fluorescence (Rmax) was obtained by adding 1 µM ionomycin to the cell suspension in the presence of 10 mM extracellular CaCl2. Minimum fluorescence was determined following the depletion of external Ca^2+ with 5 mM EGTA.
To visualize the SOCE, cells were placed into the quartz cuvette and 0.5 EGTA was added just before the beginning of the recordings. To induce the SOCE, the cells were treated with 1 μM thapsigargin (TG) during 10 min in Ca^2+-free HBS to induce Ca^2+ release from the ER and the opening of SOCE channels. Then, 1 mM CaCl2 was added to measure the change in [Ca^2+]cyt subsequently to Ca^2+ influx. In the dose-response experiments, different concentrations of 2-APB and its analogs were added 30 s prior to Ca^2+ readdition.

Data set [5] relates to ER Ca2+ stores of L15 fibroblasts. Description: Basal Ca2+ leak from ER stores, unidirectional 45Ca2+ flux in permeabilized L15 fibroblasts. Format: cell-based. As for the experimental part:
Measurements of SERCA-mediated ^45Ca^2+ store loading and IP3-dependent release from the ER Ca^2+ store were performed on permeabilized cells in unidirectional conditions. As this approach required the use of cells forming strongly adherent monolayers, we used L15 fibroblasts stably overexpressing IP3R1, similarly to our previous work.
The L15 fibroblasts stably overexpressing IP3R1 were seeded in gelatin-coated 12-well plates (Greiner, Frickenhausen, Germany) at a density of 60,000 cells per well. Unidirectional ^45Ca^2+ flux experiments on confluent cell monolayers were performed at 30 °C after membrane permeabilization with saponin (40 µg/mL), exactly as previously described. After permeabilization, the non-mitochondrial Ca^2+ stores were loaded for 45 min in 120 mM KCl, 30 mM imidazole–HCl (pH 6.8), 5 mM MgCl2, 5 mM ATP, 0.44 mM EGTA, 10 mM NaN3, and 150 nM free ^45Ca^2+ (28 µCi mL^−1). Subsequently, efflux was initiated by incubation in efflux medium (120 mM KCl, 1 mM EGTA, 10 µM TG and 30 mM imidazole–HCl pH 6.8). […] The exact amount of Ca^2+ at each time point is calculated by summing in retrograde order the amount of radioactivity remaining in the cells at the end of the efflux and the radioactivity collected during the successive time intervals. […] These various parameters were measured both in control conditions or in the presence of various 2-APB analogs as indicated. […]

Values joined by “and” are separate entries in the source; they are usually repeats but may differ in a detail not shown here. Equal values may be shown once. Read-outs that look alike come from different tables or passages of the source.

With “2-(dibiphenyl-4-ylboryloxy)ethanamine [P11]”, the Ki in data set [1] was 50 ± 5 nM; in data set [4] (read-out: Ki (nM), inhibition constant on SOCE), ~75 nM and 75 nM; in data set [4] (read-out: Ki (µM), inhibition constant on SOCE), less than 1000 nM. The “IL-2 synthesis by compound alone” value in data set [2] (1 µM, no PHA) is “not able to induce IL-2 synthesis”. Besides, in data set [2] (10 µg/mL PHA + 1 µM P11, 24 h), the “IL-2 concentration in medium” value is on record as 26 ± 6 pg/mL. Besides, the “change of IL-2 synthesis” value in data set [2] (10 µg/mL PHA + 1 µM P11, 24 h, vs PHA alone) was −74%. The “IL-2 corrected for the number of living cells” value in data set [2] (PHA + P11 (highest concentration), 24 h) was found to be 39.2 ± 8.6 pg/mL. In addition, the “decrease of IL-2 synthesis capacity of living cells” value in data set [2] (PHA + P11 vs PHA alone) is on record as “≈ 63%”. The “dead cells (trypan blue)” value in data set [3] (1 µM P11 alone, 24 h) is recorded as 4.0 ± 0.4%; in data set [3] (PHA + 1 µM P11, 24 h) it was 33.2 ± 1.3%. In addition, the “concentration of complete/full SOCE inhibition” value in data set [4] is listed as “below 1 µM”. In addition, the “concentration at which SOCE is totally blocked” value in data set [4] (Figure 2B) is given as greater than 100 nM. The “Ca2+ leak from the ER by an IP3-independent pathway” value in data set [5] was “did not induce a Ca^2+ leak”.
